In the experiment the test system is ID8 cells. Briefly: Inhibition assay of cellular uptake of OCTL14. The format is cell-based, murine. The following applies: pre-blocked 5-30 min, then 2 μM OCTL14 for 30 min.
On to `O=C1OC(c2ccc(O)c(S(=O)(=O)O)c2)(c2ccc(O)c(S(=O)(=O)O)c2)c2c(Br)c(Br)c(Br)c(Br)c21` [BSP, bromsulphthalein], for which the “change in cellular uptake of OCTL14 after pretreatment with inhibitor” value (shortened to “change in cellular uptake … with inhibitor”) is “did not result in significant changes in cellular uptake”. `O=C(N/N=C/c1cc(O)c(O)cc1O)c1cc2ccccc2cc1O` [Dyngo 4a]: the “change in cellular uptake … with inhibitor” value is given as “did not result in any appreciable change in cellular uptake”. In the case of `CN(C)C(=O)CCSC(SCCC(=O)O)c1cccc(/C=C/c2ccc3ccc(Cl)cc3n2)c1` (stereo not shown) [MK-571], the “change in cellular uptake … with inhibitor” value is on record as “little change in cellular uptake”.

Turning to `O=C1NC(=NS(=O)(=O)c2cccc3ccccc23)S/C1=C\c1ccc(Br)cc1` [Pitstop 2], the “change in cellular uptake … with inhibitor” value was “did not result in any appreciable change in cellular uptake”.

The values are drawn from publication PMC9007913 (Angewandte Chemie (International ed. in English), 2022).
